Measured values from US5840747A, “Calcium channel antagonists” (Eli Lilly and Company, priority 1995, dated 1998).
“Also recorded” adds a separate entry of the source.

Legend:
Format in all cases: cell-based
[1] = biological target: T1, calcium channels in vascular tissue (Rattus norvegicus, UniProt P22002); assay: Contractile response of rat aorta to the calcium agonist BayK 8644; settings: for inhibition of the contraction to BayK 8644: absence of an intact endothelium, 10 mM KCl prior to BayK 8644 (FIGS. 7 and 8)
T1 construct: BayK 8644-induced contraction
Text: (§1) Male Wistar rats (250-350 g; Charles River Laboratories, Portage, Mich.) were sacrificed by cervical dislocation. The aorta was removed and cleaned of extraneous tissue and cut into ring segments, each approximately 4-5 mm long. In some tissues, endothelium was removed by rotating the ring segment around the tip of a forceps 10 times. Lack of tissue relaxation to acetylcholine (10^-6 M) after contraction with norepinephrine (10^-7 M) was used as evidence for denuded endothelium. Tissues with an intact endothelium relaxed to acetylcholine with 88.5±1.6% (n-11) relaxation.
Ring segments were placed between two stainless steel hooks and mounted in isolated organ baths containing 10 ml of modified Krebs' bicarbonate buffer of the following composition (mM): NaCl, 118.2; KCl, 4.6' CaCl2.2H2 O, 1.6; KH2 PO4, 1.2; MgSO4, 1.2; glucose, 10; and NaHCO3, 24.8. Organ bath solutions were aerated with 95% O2 /5% CO2 and maintained at 37° C. Tissues were placed under an optimal force of 4 grams and equilibrated for one hour with washes every 15 minutes. Changes in force were recorded and analyzed by a Biopac MP100 (World Precision Instruments, Sarasota, Fla.) data acquisition system via Sensotec (model MBL 5514-02) transducers (Sensotec Inc. Columbus, Ohio).
All tissues were initially challenged with KCl (67 mM) to establish viability. Concentration-response curves were generated in a cumulative fashion and are reported as a percentage of an initial KCl contraction (67 mM) produced in each tissue. Vehicle, β-estradiol, 14 or 16 were added to the tissues 60 minutes prior to initiating the concentration-response curves to agonists. In studies with BayK 8644, tissues were exposed to 10 mM KCl prior to initiating the concentration-response curves for BayK 8644. Only one agonist concentration-response curve was generated in each tissue. All results are expressed as mean±SE where n represents the number of rings examined. […]

[2] = test system: rat aorta; assay: Contractile responses of rat aortic rings to norepinephrine, serotonin and U46619 (isolated organ bath); settings: for inhibitory effect on contractile responses to norepinephrine, serotonin, and U46619: summary in discussion; for dependence of the inhibition of contractile responses on the endothelium: rat aortic rings with versus without intact endothelium
Text: Male Wistar rats (250-350 g; Charles River Laboratories, Portage, Mich.) were sacrificed by cervical dislocation. The aorta was removed and cleaned of extraneous tissue and cut into ring segments, each approximately 4-5 mm long. In some tissues, endothelium was removed by rotating the ring segment around the tip of a forceps 10 times. Lack of tissue relaxation to acetylcholine (10^-6 M) after contraction with norepinephrine (10^-7 M) was used as evidence for denuded endothelium. […] Tissues were placed under an optimal force of 4 grams and equilibrated for one hour with washes every 15 minutes. […] All tissues were initially challenged with KCl (67 mM) to establish viability. Concentration-response curves were generated in a cumulative fashion and are reported as a percentage of an initial KCl contraction (67 mM) produced in each tissue. Vehicle, β-estradiol, 14 or 16 were added to the tissues 60 minutes prior to initiating the concentration-response curves to agonists. […] Only one agonist concentration-response curve was generated in each tissue. All results are expressed as mean±SE where n represents the number of rings examined.

[3] = test system: rat aorta; assay: Endothelium integrity: relaxation to acetylcholine after contraction with norepinephrine; settings: acetylcholine 10^-6 M after contraction with norepinephrine 10^-7 M, tissues with intact endothelium, n-11
Text: as §1

[4] = 10^-6 and 10^-5 M, rat aorta with and without intact endothelium, added 60 minutes prior to agonist

T1 sequence (P22002 whole entry): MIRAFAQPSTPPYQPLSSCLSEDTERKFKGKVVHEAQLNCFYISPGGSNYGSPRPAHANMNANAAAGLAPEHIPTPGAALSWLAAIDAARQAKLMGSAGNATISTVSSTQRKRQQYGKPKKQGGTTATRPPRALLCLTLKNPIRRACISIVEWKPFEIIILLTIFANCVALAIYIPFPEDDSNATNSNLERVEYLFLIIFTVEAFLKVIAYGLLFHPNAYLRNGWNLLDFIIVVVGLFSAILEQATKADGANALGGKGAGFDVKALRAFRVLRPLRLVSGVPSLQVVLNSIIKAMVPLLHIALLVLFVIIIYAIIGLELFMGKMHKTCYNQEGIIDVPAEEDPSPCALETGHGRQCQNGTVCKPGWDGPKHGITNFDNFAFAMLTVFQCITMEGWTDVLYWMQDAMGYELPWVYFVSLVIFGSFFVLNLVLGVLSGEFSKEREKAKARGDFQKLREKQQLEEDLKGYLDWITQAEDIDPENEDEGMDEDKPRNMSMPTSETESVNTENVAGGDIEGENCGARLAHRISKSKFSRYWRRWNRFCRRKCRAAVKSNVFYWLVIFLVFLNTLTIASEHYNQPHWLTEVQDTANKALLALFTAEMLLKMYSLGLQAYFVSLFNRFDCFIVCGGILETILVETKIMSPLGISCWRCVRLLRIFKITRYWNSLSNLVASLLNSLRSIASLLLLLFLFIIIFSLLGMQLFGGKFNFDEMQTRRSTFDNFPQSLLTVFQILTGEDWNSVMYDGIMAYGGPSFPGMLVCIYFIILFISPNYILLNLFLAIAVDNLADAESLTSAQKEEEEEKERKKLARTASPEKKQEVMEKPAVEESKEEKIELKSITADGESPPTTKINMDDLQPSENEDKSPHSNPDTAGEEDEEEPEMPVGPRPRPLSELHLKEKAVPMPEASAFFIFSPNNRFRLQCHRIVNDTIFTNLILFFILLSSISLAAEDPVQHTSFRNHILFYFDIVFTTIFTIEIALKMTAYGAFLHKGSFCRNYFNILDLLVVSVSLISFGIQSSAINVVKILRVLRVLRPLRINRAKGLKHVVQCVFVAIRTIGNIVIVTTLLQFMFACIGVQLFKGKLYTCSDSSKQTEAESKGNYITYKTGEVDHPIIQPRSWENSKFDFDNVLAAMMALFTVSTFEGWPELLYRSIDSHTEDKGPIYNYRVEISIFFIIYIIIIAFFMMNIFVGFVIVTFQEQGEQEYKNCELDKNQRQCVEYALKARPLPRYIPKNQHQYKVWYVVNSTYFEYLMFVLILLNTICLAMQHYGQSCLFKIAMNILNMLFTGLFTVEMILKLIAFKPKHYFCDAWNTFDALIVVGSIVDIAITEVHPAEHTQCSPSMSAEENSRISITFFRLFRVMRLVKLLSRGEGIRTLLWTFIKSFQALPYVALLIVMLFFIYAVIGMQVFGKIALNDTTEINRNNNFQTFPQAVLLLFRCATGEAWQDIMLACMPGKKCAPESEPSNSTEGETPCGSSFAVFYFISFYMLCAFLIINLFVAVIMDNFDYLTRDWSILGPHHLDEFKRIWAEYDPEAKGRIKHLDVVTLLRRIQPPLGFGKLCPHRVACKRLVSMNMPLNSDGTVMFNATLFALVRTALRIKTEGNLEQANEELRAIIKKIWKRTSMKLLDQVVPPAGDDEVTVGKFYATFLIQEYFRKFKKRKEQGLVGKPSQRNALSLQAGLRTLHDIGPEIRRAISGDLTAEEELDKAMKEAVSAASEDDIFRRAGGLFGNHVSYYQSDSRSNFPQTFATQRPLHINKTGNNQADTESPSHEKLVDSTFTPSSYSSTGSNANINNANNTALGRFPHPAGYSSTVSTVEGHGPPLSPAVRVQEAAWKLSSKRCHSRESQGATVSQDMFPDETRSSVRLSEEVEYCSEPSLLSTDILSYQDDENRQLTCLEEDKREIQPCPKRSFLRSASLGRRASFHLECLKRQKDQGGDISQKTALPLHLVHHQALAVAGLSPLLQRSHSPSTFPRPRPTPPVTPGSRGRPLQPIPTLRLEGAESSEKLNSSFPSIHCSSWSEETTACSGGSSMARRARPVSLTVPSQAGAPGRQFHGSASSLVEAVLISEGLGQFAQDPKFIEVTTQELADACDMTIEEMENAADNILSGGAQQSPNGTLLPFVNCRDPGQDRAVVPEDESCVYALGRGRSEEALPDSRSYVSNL

In the case of `O=C(c1ccc(OCCN2CCCCC2)cc1)c1c(-c2ccc(O)cc2)sc2cc(O)ccc12` [Compound 14, 6-hydroxy-2-(4-hydroxyphenyl)-3-[4-(2-piperidinoethoxy)benzoyl]benzo[b]thiophene], the “inhibition of the contraction to BayK 8644” value [1] is reported as “inhibition of the contraction to BayK 8644 occurred”, the “inhibition of contractile responses to serotonin” value ([2]; rat aorta with and without intact endothelium (FIG. 4), concentration not given) is reported as “inhibited” and the “inhibition of serotonin response compared with norepinephrine response” value ([2]; rat aorta with and without intact endothelium (FIGS. 4 and 5)) is reported as “greater than with norepinephrine”. For the same molecule, the “inhibitory effect on contractile responses to norepinephrine, serotonin, and U46619” value ([2]; rat aorta) was “marked inhibitory effect” and the “dependence of the inhibition of contractile responses on the endothelium” value [2] was “independent of an intact endothelium”.
`O=C(c1ccc(OCCN2CCCC2)cc1)c1c(-c2ccc(O)cc2)sc2cc(O)ccc12` [Compound 16, 6-hydroxy-2-(4-hydroxyphenyl)-3-[4-(2-pyrrolidinoethoxy)benzoyl]benzo[b]thiophene] was tested, and the “inhibition of the contraction to BayK 8644” value [1] was “inhibition of the contraction to BayK 8644 occurred”, the “relative potency as calcium channel antagonist” value ([1]; comparison between substances) was “considerably more potent as a calcium channel antagonist than 14; also recorded: more potent calcium channel antagonist in vascular tissue than estrogen” and the “inhibition of contractile response to U46619” value [2, 4] was “potently inhibited”. The “inhibition of contractile response to norepinephrine” value [2, 4] was “potently inhibited”, the “inhibition of contractile response to serotonin” value [2, 4] was “potently inhibited” and the “potency in inhibiting contraction to serotonin relative to norepinephrine or U46619” value ([2]; rat aorta) was “more potent in inhibiting the contractile response to serotonin relative to norepinephrine or U46619”. For the same molecule, the “inhibitory effect on contractile responses to norepinephrine, serotonin, and U46619” value ([2]; rat aorta) was “marked inhibitory effect” and the “dependence of the inhibition of contractile responses on the endothelium” value [2] was “appeared independent of the endothelium”.
`CC(=O)OCC[N+](C)(C)C` [acetylcholine] was tested, and the percent relaxation to acetylcholine at 1 µM [3] was 88.5 ± 1.6%.
